Assay results as given in patent US20100113436A1, “DISPIRO TETRAOXANE COMPOUNDS AND THEIR USE IN THE TREATMENT OF MALARIA AND/OR CANCER” (priority 2006, published 2010).
In brackets after ≈: the same amount, converted by molar mass. Where two headings read alike, the source gives them in different places.

How the values were obtained:
Plasmodium falciparum K1 = assay: In vitro analysis versus strains of Plasmodium falciparum: K1; type: cell-based; details: K1 strain
[1] = test system: Plasmodium falciparum V1S; assay: microbe, parasite or virus in culture; type: cell-based
[2] = test system: Plasmodium falciparum HB3; assay: In vitro analysis versus strains of Plasmodium falciparum: HB3; type: cell-based; details: HB3 strain, read-out: IC50
[3] = test system: Plasmodium falciparum DD2; assay: In vitro analysis versus strains of Plasmodium falciparum: DD2; type: cell-based; details: DD2 strain, read-out: IC50
[4] = test system: Plasmodium falciparum PH3; assay: In vitro analysis versus strains of Plasmodium falciparum: PH3; type: cell-based; details: PH3 strain, read-out: IC50
[5] = test system: Plasmodium falciparum GC03; assay: In vitro analysis versus strains of Plasmodium falciparum: GC03; type: cell-based; details: GC03 strain, read-out: IC50
[6] = test system: Plasmodium falciparum TM4; assay: In vitro analysis versus strains of Plasmodium falciparum: TM4; type: cell-based; details: TM4 strain, read-out: IC50
[7] = test system: 3D7 strain of Plasmodium falciparum; assay: In vitro antimalarial activity, 48-h [3H]-hypoxanthine incorporation assay; type: cell-based
Procedure: The 3D7 strain of Plasmodium falciparum was used in this study. This strain is known to be […] Parasites were maintained in continuous culture using the method of Jensen and Trager^4. […] Stock drug solutions were prepared in 100% dimethylsulphoxide (DMSO) and diluted to the appropriate concentration using complete medium. Assays were performed in sterile 96-well microlitre plates, each plate contained 200 μl of parasite culture (2% parasitemia, 0.5% haematocrit) with or without 10 μl drug dilutions. Each drug was tested in triplicate and parasite growth compared to control wells (which constituted 100% parasite growth). […] IC50 values were calculated by interpolation of the probit transformation of the log dose-response curve.

[8] = Stability to other iron salts (FeSO4•7H2O, FeCl2•4H2O); type: physicochemical; details: further iron salts
[9] = Timed iron degradation stability, FeBr2 in THF; type: physicochemical; details: ferrous bromide/THF
Source text: The resulting residue was purified by flash column chromatography and the % recovery of starting endoperoxide calculated (Table 15).

[10] = test system: HepG2 Human hepatocyte carcinoma; assay: Cellular cytotoxicity screen, Resazurin reduction; type: cell-based; details: Hep2G
Source text: (§1) Values represent Tox 50 in μM. Cytotoxicity measured by Resazurin reduction.
(§2) Single full dose response curves generated using 10 independent drug concentrations. The 100 therapeutic index (TI) is the ration of the TOX 50 to the IC50 for the specific compound against the 3D7 P. falciparum isolate. The primary hepatocytes have demonstrable drug metabolising activity. The tetraoxane derivatives are remarkably non-toxic in these screens with in vitro TIs of between 5000 to 17000!.

[11] = test system: Salmonella typhimurium TA1535/pSK1002; assay: Salmonella typhimurium SOS/umu genotoxicity assay
Source text: (§3) This assay is based on the ability of DNA damaging agents to induce the expression of the umu operon. The Salmonella strains have a plasmid pSK1002 which carries an umuC-lacZ fused gene that produces a hybrid protein with β-galactosidase activity and whose expression is controlled by the umu regulatory region.

[12] = test system: Salmonella typhimurium NM2009; assay: Salmonella typhimurium SOS/umu genotoxicity assay
Source text: as §3

P. berghei ANKA [13] = assay: In vivo dose response screening against P. berghei ANKA; set-up: species or system mice; details: Plasmodium berghei; P. berghei ANKA infected mice; Table 9
Procedure: Compound 29c, 29h and 291 were then subjected to dose response experiment against the P. berghei ANKA and the results are summarized in Table 7 below.

P. berghei ANKA [14] = assay: In vivo dose response screening against P. berghei ANKA; details: P. berghei ANKA infected mice; Table 9; sigmoidal curve calculation
[15] = test system: MRC-5 Embryonal lung, diploid; assay: Cellular cytotoxicity screen, Resazurin reduction; type: cell-based, Human
Source text: as §1, §2

Vero Kidney = assay: Cellular cytotoxicity screen, Resazurin reduction; type: cell-based, African green monkey, Cercopithecus aethiops
Source text: as §1, §2

[16] = test system: L6 Sketal muscle myoblast; assay: Cellular cytotoxicity screen, Resazurin reduction; type: cell-based, rat
Source text: as §1, §2

[17] = test system: H9c2(2-1) Myocardium, heart; assay: Cellular cytotoxicity screen, Resazurin reduction; type: cell-based, rat; details: H9c(2-1)
Source text: as §1, §2

[18] = ratio TOX 50 to IC50 against 3D7 P. falciparum

Compound: CCN(CC)Cc1cc(Nc2ccnc3cc(Cl)ccc23)ccc1O [AM, Amodiaquine, reference compound]
- IC50 (Plasmodium falciparum K1): 10.2 nM
- IC50 [1]: 7.7 nM
- IC50 [2]: 5.9 nM
- IC50 [3]: 6.1 nM
- IC50 [4]: 4.7 nM
- IC50 [5]: 4.5 nM
- IC50 [6]: 6.4 nM

Compound: O=S(=O)(c1ccccc1)N1CCC2(CC1)OOC1(OO2)C2CC3CC(C2)CC1C3 [Tetraoxane 39f]
- IC50 ([7]; 3D7, sulfonamide dispiro 1,2,4,5-tetraoxanes, Table 8, read-out: Mean IC50): 8.1 nM
- degradation by iron salts known to degrade artemisinin and arteflene [8]: ineffective at degrading
- degradation ([9]; after 4 h): 10%
- turnover ([9]; after 48 h): 31%

Compound: CCS(=O)(=O)N1CCC2(CC1)OOC1(OO2)C2CC3CC(C2)CC1C3 [Tetraoxane 39b]
- Tox 50 [10]: >50 µM
- Theraputic Index (TI) [10, 18]: >9090
- IC50 (Plasmodium falciparum K1): 3 nM
- IC50 [1]: 2.7 nM
- MCE TA1535 (Maximum Co w/o effects on bacteria growth or β-galactosidase production) ([11]; Salmonella typhimurium): 50 µM
- genotoxicity result in SOS/umu assay ([11]; both strains TA1535/pSK1002 and NM2009, highest concentration tested 50 μM, absence and presence of S-9 mix): Negative
- Max. Fold Increase ([11]; −S9): 1.03 ± 0.07 fold
- Potential genotox ([11]; −S9): NEG
- MCE NM2009 (Maximum Co w/o effects on bacteria growth or beta-galactosidase production) ([12]; Salmonella typhimurium): 50 µM
- Max. Fold Increase ([12]; −S9): 1.07 ± 0.03 fold
- Potential genotox ([12]; −S9): NEG
- IC50 ([7]; 3D7, read-out: Mean IC50): 5.55 nM
- IC50 [2]: 3.8 nM
- IC50 [3]: 3 nM
- ED50 (P. berghei ANKA [13]): 6.61 mg/kg
- solubility (physchem): 50 µM (≈ 18.7 µg/mL)
- IC50 [4]: 1.9 nM
- ED90 (P. berghei ANKA [14]): 35.48 mg/kg
- IC50 [5]: 3 nM
- Tox 50 [15]: >50 µM
- Theraputic Index (TI) [15, 18]: >9090
- Tox 50 (Vero Kidney): >50 µM
- Theraputic Index (TI) (Vero Kidney; [18]): >9090
- IC50 [6]: 2.4 nM
- Tox 50 [16]: 31 µM
- Theraputic Index (TI) [16, 18]: 5636
- Tox 50 [17]: >50 µM
- Theraputic Index (TI) [17, 18]: >9090
